{"source": "patent US12071488B2", "about": "“Method of sensitizing cancer cells to anti-cancer treatment” (TWO TO BIOTECH LTD., priority 2017, dated 2024)", "key": {"HER2 receptor": {"test_system": "HER2 receptor", "assay": "FACS analysis of HER2 receptor expression on MDA-MB-231 cells", "format": "cell-based, human", "description": "(§1) Cells (MDA-MB-231, MDA-MB-468 and BTS-149) were grown until 70-80% density was reached. Then the growth medium was discarded and the cells were treated with trypsin and medium as described above. After the cells were detached from the surface, the 20 ml cell suspension (namely cells in medium and Trypsin) were transferred into 50 ml conical tubes and centrifuged at 300 g for 10 min in 4° C. Next, the supernatant was discarded and 2 ml fresh medium were added to the cell pellet. Then the cells were fluidized and 13 ml medium was added to the tubes, thereby suspending the cells in a total of 15 ml medium. The cells were counted and seeded at 10.000-15,000 cells/well on chamber slide in 1 ml growing medium. The chamber slide seeded with cells was placed in the hood for 1 hour and then transferred to the incubator for an overnight incubation under the above conditions. The following day the medium was aspirated from the cell chamber slides and discarded and 1 ml cell treatment medium supplemented with APC1 (at a final concentration of 100 or 250 μg/ml) or control (medium only). Medium was added to each one of the wells (aliquots of APC1 were used in order to avoid repeated freeze-thaw cycle). The cells were then incubated for 24-144 hours. […]"}, "HER2": {"test_system": "HER2", "assay": "Immunofluorescence of HER2 in MDA-MB-231 cells", "format": "cell-based, human", "description": "as §1"}, "MDA-MB-231 cells": {"test_system": "MDA-MB-231 cells", "assay": "Resazurin cell viability assay with APC1 and cisplatin or doxorubicin, MDA-MB-231 cells", "format": "cell-based, human", "conditions": "MDA-MB-231 pre-incubated with APC1 250 μg/ml; doxorubicin 0.3, 0.5, 1 μM, 48 hours; concentration dependent", "description": "Cells treated with APC1 were seeded with APC1 at 250 μg/ml. The cells were incubated overnight.\nThen the media was aspirated from the plates, and 100 μl of the treatment solutions were added to the appropriate wells, each treatment in triplicates. The cells were incubated for 48 hours."}, "[1]": {"test_system": "human TNBC tumors (MDA-MB-231)", "assay": "Relative tumor volume in nude mice inoculated with TNBC cells", "format": "in vivo", "conditions": "MDA-MB-231 tumors", "description": "To this end, mice were inoculated with TNBC cells as detailed above, briefly 32 nude mice were inoculated subcutaneously with TNBC cells (MDA-MB-231, 8×10^6 cells per mouse)."}, "[2]": {"test_system": "ovarian cancer cells OV90 and OV3", "assay": "Glutathione level in ovarian cancer cells treated with APC1", "format": "cell-based, human", "conditions": "ovarian cancer cells (FIG. 18A)", "description": "(§2) Gluthatione Assay Kit (Sigma CS0260);\n(§3) Cell lines (MDA-MB-231, MDA-MB-468) were grown in 75 cm^2 cell culture flask, reached 80-90% confluence. The cells were treated with APC1 (250 μg/ml, 2 times per week for 1 week).\n(§4) Cells were washed twice with 10 ml PBS, PBS (5 ml) was added and the cells were collected by scrapping, centrifuged at 300G, 4° C. for 5 minutes, the supernatant was then discarded and the cells were treated with APC1 as indicated above. The values of the Glutathione Standard Solutions were used to determine the standard curve and the delta A412/min equivalent to 1 nmole of reduced glutathione per well was calculated according to manufacturer's instructions.\n(§5) As detailed above, the ovarian cancer cells OV90 and OV3, the pancreatic cancer cells BxPC3 and Panel and the TNBC cancer cells MDA-MB-231 and MDA-MB-468 were treated with APC1 and then the relative glutathione levels in these cells was measured as detailed above."}, "[3]": {"test_system": "TNBC cancer cells MDA-MB-231 and MDA-MB-468", "assay": "Glutathione level in TNBC cells treated with APC1", "format": "cell-based, human", "conditions": "TNBC cancer cells (FIG. 18C)", "description": "as §2, §3, §4, §5"}}, "data": [{"sequence": "EKGAAFSPIYPRRK (C terminal peptide of KTPAF50) [APC1, polypeptide consisting of the 14 C-terminal amino acid residues of the peptide KTPAF50]", "values": [{"measurement": "dependence of HER2 expression on APC1 concentration (FACS)", "setting": "HER2 receptor; 100 μg/ml vs 250 μg/ml APC1", "result": "concentration dependent"}, {"measurement": "HER2 expression (FACS)", "setting": "HER2 receptor; MDA-MB-231 cells, two doses of APC1 at 100 or 250 μg/ml, vs control cells", "result": "rise in HER2 expression"}, {"measurement": "HER2 expression by immunofluorescence", "setting": "HER2; single dose 250 μg/ml APC1, 48 hours, vs control cells", "result": "clear HER2 expression"}, {"measurement": "HER2 expression by immunofluorescence, multiple doses", "setting": "HER2; three doses of 250 μg/ml APC1, 144, 96 and 72 hours, vs single dose", "result": "enhanced"}, {"measurement": "sensitivity to doxorubicin (relative cell viability)", "setting": "MDA-MB-231 cells", "result": "increased the sensitivity"}, {"measurement": "effect on tumor volume compared with doxorubicin-treated group", "setting": "[1]; APC1 15 mg/kg three times a week", "result": "more pronounced"}, {"measurement": "relative tumor volume", "setting": "[1]; APC1 15 mg/kg, doxorubicin 3 mg/kg once a week, 5 weeks, control increased linearly", "result": "moderate increase"}, {"measurement": "level of glutathione", "setting": "[2]", "result": "decreased"}, {"measurement": "level of glutathione", "setting": "[3]", "result": "decreased"}]}]}
